The values below come from patent US20090324515A1, “ANTIMICROBIAL FLAVOURING COMPOSITION” (priority 2006, published 2009).

Experiment [1] deals with Streptococcus mutans DSM 6178. Put plainly: Determination of minimum inhibitory concentration (microdilution assay). The following applies: for MIC: Streptococcus mutans, DSM6178, 24 h, read-out: MIC Streptococcus mutans. (Broth dilution looks for growth in wells or tubes with falling amounts of substance.)
Experiment [2] concerns Prevotella melaninogenica. Described as above. The following applies: 72 h, read-out: MIC Prevotella melaninogenica.
The test system of experiment [3] is Fusobacterium nucleatum DSM 20482. The description is as above. The following applies: for MIC: Fusobacterium nucleatum, DSM20482, 72 h, read-out: MIC Fusobacterium nucleatum.
In experiment [4] the test system is Porphyromonas gingivalis DSM 20709. Described as above. The following applies: for MIC: Porphyromonas gingivalis, DSM20709, 72 h, read-out: MIC Porphyromonas gingivalis.
Experiment [5] deals with Mycobacterium tuberculosis subsp. tuberculosis. The following applies: Amicbase; cited from earlier work.
The next experiment deals with Staphylococcus aureus. The following applies: Amicbase; cited from earlier work.
The next experiment deals with Streptococcus sp. The following applies: Amicbase; cited from earlier work.
For another experiment, the system named is Eschericia coli. The following applies: Amicbase; cited from earlier work.
For a further experiment, the system named is Proteus mirabilis. As to conditions: Amicbase; cited from earlier work.
Another experiment concerns Pseudomonas aeruginosa. As to conditions: Amicbase; cited from earlier work.
Setting [6] is: 72 h, 37° C., anaerobic, without CO2, average of 3 MIC values.

Values after ≈ are worked out from the molar mass of the structure shown. Some results are limits rather than exact numbers.

Consider `CCCCC(C)C(=O)O` (centres unmarked) [2-Methylhexanoic acid, 2-methylhexanoic acid], for which the MIC in experiment [1] is not above 150 µg/mL; in experiment [2], 1500 µg/mL (≈ 11.5 mM); in [3], 500 µg/mL (≈ 3.84 mM); in [4], 1300 µg/mL (≈ 9.99 mM).
As for `Cc1ccc(O)cc1C` [3,4-dimethylphenol], the MIC in experiment [5] was 20 ppm; in the experiment on Staphylococcus aureus it was 2000 ppm; with Streptococcus sp. it was 2000 ppm; in the experiment with Eschericia coli, 4000 ppm; in the experiment on Proteus mirabilis it was 4000 ppm; with Pseudomonas aeruginosa it was 4000 ppm. The MIC in experiment [1] is not above 150 µg/mL; in [2] it was 590 µg/mL (≈ 4.83 mM); in [3] it was 500 µg/mL (≈ 4.09 mM); in experiment [4], not above 150 µg/mL.
For `CC(=O)C1=C(C)[C@@H]2C[C@@]3(C1)[C@H](C)CC[C@H]3C2(C)C` [Acetyl cedrene, acetyl cedrene], the “MIC Streptococcus mutans” value in [1] (24 h, 37° C., anaerobic, with CO2, average of 3 MIC values) is 250 ppm. In addition, the “MIC Fusobacterium nucleatum” value in [3] (setting [6]) stood at 500 ppm. Also, in experiment [4] (setting [6]), the “MIC Porphyromonas gingivalis” value is on record as 150 or less ppm.
On to `CC1=CCC(CCC(C)CO)C1(C)C` (centres unmarked) [Brahmanol, 2-methyl-4-(2,2,3-trimethyl-3-cyclopenten-1-yl)-1-butanol], for which the MIC in [1] is 250 µg/mL (≈ 1.27 mM); in experiment [3], 250 µg/mL (≈ 1.27 mM); in experiment [4], not above 150 µg/mL.
In the case of `O=C/C=C/c1ccccc1` [Cinnamic aldehyde, cinnamic aldehyde], the MIC in [1] was 250 µg/mL (≈ 1.89 mM); in [3] it was 500 µg/mL (≈ 3.78 mM); in experiment [4] it was not above 150 µg/mL.
In the same order, the values of `O=C1CCCCCCCCCCCCCC1` [Cyclopenta-decanone, cyclopentadecanone] are 1000 µg/mL (≈ 4.46 mM), 1000 µg/mL (≈ 4.46 mM) and not above 150 µg/mL.
In the same order, the values of `COC(=O)c1c(C)cc(O)c(C)c1O` [Methylatrarate, methyl-2,4-dihydroxy-3,6-dimethyl-benzoate] are 1000 µg/mL (≈ 5.1 mM), not above 150 µg/mL and not above 150 µg/mL.
